According to PMC8748872, “Crystal structure and functional implication of bacterial STING” (Nature Communications, 2022):

Columns and labels:
[1] = target: T1, PcSTING (Prevotella corporis, UniProt A0A133PTK7); experiment: crystal structure; LC-MS/MS of co-purified ligand; type: binding; details: co-purified endogenous ligand from E. coli; 2.25 A for the SeMet form
T1 construct: gene HMPREF3226_02659; C-terminal STING domain only; N-terminal His6-MBP or His6-SUMO tag removed by TEV; E. coli BL21(DE3); homodimer
T1 sequence (A0A133PTK7 entry or part of it): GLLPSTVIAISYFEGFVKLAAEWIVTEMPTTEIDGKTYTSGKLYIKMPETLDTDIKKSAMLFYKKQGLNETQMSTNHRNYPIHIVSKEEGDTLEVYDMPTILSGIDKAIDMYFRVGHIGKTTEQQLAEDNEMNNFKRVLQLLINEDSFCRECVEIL

[2] = target: full-length TIR-STING protein from Myroides sp. ZB35 (MyTIR-STING) (Myroides sp. ZB35); experiment: SEC; 16/60 Superdex 200 increase column; 20 mM Tris pH 8.0, 200 mM NaCl, 5% glycerol, 1 mM TCEP; no c-di-GMP added

stoichiometry N [2]	Compound	crystal structure; LC-MS/MS of co-purified ligand [1]
	Nc1nc2c(ncn2[C@@H]2O[C@@H]3COP(=O)(O)O[C@H]4[C@@H](O)[C@H](n5cnc6c(=O)[nH]c(N)nc65)O[C@@H]4COP(=O)(O)O[C@H]3[C@H]2O)c(=O)[nH]1 [c-di-GMP]	PcSTING/c-di-GMP and MySTING/c-di-GMP complexes have been deposited in the Protein Data Bank
2	full-length TIR-STING protein from Myroides sp. ZB35 (MyTIR-STING) (natural protein)	
